According to patent US12012417B2, “N-substituted tetrahydrothienopyridine derivatives and uses thereof” (NOVARTIS AG, priority 2018, dated 2024):
Where a name gives a salt, the structure may show the parent alone.

Experiments:
[1] = test system: Dengue 3 virus MY05-34640-WT-C6/36; test: High-content imaging cell-based flavivirus immunodetection (HCl-CFI) assay, Dengue 3; conditions: Dengue virus, A549, 48 h, read-out: Dengue 3 virus MY05-34640-WT-C6/36 in A549 using HCl [Inhibitor/IC50] Qualified AC50
[2] = test system: Dengue 1 virus MY97-10245; test: High-content imaging cell-based flavivirus immunodetection (HCl-CFI) assay, Dengue 1; conditions: Dengue virus, A549, 48 h, read-out: Dengue 1 virus MY97-10245 in A549 using HCl [Inhibitor/IC50] Qualified AC50
[3] = test system: Dengue 4 virus MY01-22713; test: High-content imaging cell-based flavivirus immunodetection (HCl-CFI) assay, Dengue 4; conditions: Dengue virus, A549, 48 h, read-out: Dengue 4 virus MY01-22713 in A549 using HCl [Inhibitor/IC50] Qualified AC50, A549 cells, 48 h, viral E protein expression
[4] = test system: Dengue 2 virus MY97-10340; test: High-content imaging cell-based flavivirus immunodetection (HCl-CFI) assay, Dengue 2; conditions: Dengue virus, A549, 48 h, read-out: Dengue 2 virus MY97-10340 in A549 using HCl [Inhibitor/IC50] Qualified AC50, A549 cells, MOI 0.3, 48 h, viral E protein expression
Summary of the method: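 A549 cells infected at MOI 0.3, treated with 3-fold, 10-point compound dilutions for 48 h. After paraformaldehyde fixation, viral E protein immunostained with 4G2 antibody and nuclei counterstained; imaged by high-content imaging. EC50 = concentration reducing E protein expression by 50%, from dose-response curves.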

| SMILES | EC50 [1] [nM] | EC50 [2] [nM] | EC50 [3] [nM] | EC50 [4] [nM] |
| --- | --- | --- | --- | --- |
| N#Cc1c(NC(=O)Cc2ccc(CS(N)(=O)=O)cc2)sc2c1CN(CC1CCCCC1)CC2 [Example 17, N-(3-cyano-5-(cyclohexylmethyl)-4,5,6,7-tetrahydrothieno[3,2-c]pyridin-2-yl)-2-(4-(sulfamoylmethyl)phenyl)acetamide] | < 100 | 100 to 1000 | < 100 | < 100 |
| COc1ccccc1CN1CCc2c(sc(NC(=O)Cc3ccc(S(N)(=O)=O)cc3)c2C#N)C1 [Example 94, N-(3-cyano-6-(2-methoxybenzyl)-4,5,6,7-tetrahydrothieno[2,3-c]pyridin-2-yl)-2-(4-sulfamoylphenyl) acetamide] | 100 to 1000 | > 1000 | 100 to 1000 | > 1000 |
| N#Cc1c(NC(=O)Cc2ccc(S(N)(=O)=O)cc2)sc2c1CCN(Cc1cc(F)cc(F)c1)C2 [Example 93, N-(3-cyano-6-(3,5-difluorobenzyl)-4,5,6,7-tetrahydrothieno[2,3-c]pyridin-2-yl)-2-(4-sulfamoylphenyl) acetamide] | < 100 | 100 to 1000 | < 100 | < 100 |
| N#Cc1c(NC(=O)Cc2ccc(S(N)(=O)=O)cc2)sc2c1CCN(Cc1ccccc1Cl)C2 [Example 114, N-(6-(2-chlorobenzyl)-3-cyano-4,5,6,7-tetrahydrothieno[2,3-c]pyridin-2-yl)-2-(4-sulfamoylphenyl)acetamide] | 100 to 1000 | 100 to 1000 | < 100 | 100 to 1000 |
| COc1cccc(CC(=O)Nc2sc3c(c2C#N)CN(Cc2cccc(F)c2)CC3)c1OC [Example 34, N-(3-cyano-5-(3-fluorobenzyl)-4,5,6,7-tetrahydrothieno[3,2-c]pyridin-2-yl)-2-(2,3-dimethoxyphenyl)acetamide] | 100 to 1000 | > 1000 | 100 to 1000 | > 1000 |
| N#Cc1c(NC(=O)Cc2ccc(S(N)(=O)=O)cc2)sc2c1CCN(CC1CCCCC1)CC2 [Example 125, N-(3-cyano-6-(cyclohexylmethyl)-5,6,7,8-tetrahydro-4H-thieno[2,3-d]azepin-2-yl)-2-(4-sulfamoylphenyl)acetamide] | 100 to 1000 | > 1000 | 100 to 1000 | 100 to 1000 |
| N#Cc1c(NC(=O)Cc2ccc(S(N)(=O)=O)cc2)sc2c1CCN(Cc1ccc(F)c(F)c1)C2 [Example 105, N-(3-cyano-6-(3,4-difluorobenzyl)-4,5,6,7-tetrahydrothieno[2,3-c]pyridin-2-yl)-2-(4-sulfamoylphenyl)acetamide] | 100 to 1000 | > 1000 | 100 to 1000 | 100 to 1000 |
| CC(c1ccccc1)N1CCc2c(sc(NC(=O)Cc3ccc(S(N)(=O)=O)cc3)c2C#N)C1 (stereo not drawn) [Example 90, N-(3-cyano-6-(1-phenylethyl)-4,5,6,7-tetrahydrothieno[2,3-c]pyridin-2-yl)-2-(4-sulfamoylphenyl)-acetamide hydrochloride] | 100 to 1000 | > 1000 | 100 to 1000 | 100 to 1000 |
| CC(C1CCCCC1)N1CCc2sc(NC(=O)Cc3ccc(S(N)(=O)=O)cc3)c(C#N)c2C1 (stereo not drawn) [Example 3, N-(3-cyano-5-(1-cyclohexylethyl)-4,5,6,7-tetrahydrothieno[3,2-c]pyridin-2-yl)-2-(4-sulfamoylphenyl)acetamide] | < 100 | 100 to 1000 | < 100 | < 100 |
| CC1Cc2sc(NC(=O)Cc3ccc(S(N)(=O)=O)cc3)c(C#N)c2CN1CC1CCC1 (stereo not drawn) [Example 60, N-(3-cyano-5-(cyclobutylmethyl)-6-methyl-4,5,6,7-tetrahydrothieno[3,2-c]pyridin-2-yl)-2-(4-sulfamoylphenyl)acetamide] | 100 to 1000 | > 1000 | 100 to 1000 | 100 to 1000 |
| CC1(C)Cc2sc(NC(=O)Cc3ccc(S(N)(=O)=O)cc3)c(C#N)c2CN1Cc1cccc(F)c1 [Example 81, N-(3-cyano-5-(3-fluorobenzyl)-6,6-dimethyl-4,5,6,7-tetrahydrothieno[3,2-c]pyridin-2-yl)-2-(4-sulfamoylphenyl)acetamide] | < 100 | 100 to 1000 | < 100 | < 100 |
| COc1cc(F)cc(CC(=O)Nc2sc3c(c2C#N)CN(Cc2cccc(F)c2)CC3)c1 [Example 35, N-(3-cyano-5-(3-fluorobenzyl)-4,5,6,7-tetrahydrothieno[3,2-c]pyridin-2-yl)-2-(3-fluoro-5-methoxyphenyl)acetamide] | 100 to 1000 | > 1000 | 100 to 1000 | 100 to 1000 |
| CS(=O)(=O)c1ccc(CC(=O)Nc2sc3c(c2C#N)CCN(Cc2cccc(F)c2)C3)cc1 [Example 119, N-(3-cyano-6-(3-fluorobenzyl)-4,5,6,7-tetrahydrothieno[2,3-c]pyridin-2-yl)-2-(4-(methylsulfonyl)phenyl)acetamide] | < 100 | > 1000 | < 100 | 100 to 1000 |
| CNS(=O)(=O)c1ccccc1CC(=O)Nc1sc2c(c1C#N)CN(Cc1cccc(F)c1)CC2 [Example 28, N-(3-cyano-5-(3-fluorobenzyl)-4,5,6,7-tetrahydrothieno[3,2-c]pyridin-2-yl)-2-(2-(N-methylsulfamoyl)phenyl)acetamide] | < 100 | 100 to 1000 | < 100 | 100 to 1000 |
| N#Cc1c(NC(=O)Cc2ccc3c(c2)CNS3(=O)=O)sc2c1CN(CC1CCCCC1)CC2 [Example 16, N-(3-cyano-5-(cyclohexylmethyl)-4,5,6,7-tetrahydrothieno[3,2-c]pyridin-2-yl)-2-(1,1-dioxido-2,3-dihydrobenzo[d]isothiazol-5-yl)acetamide] | < 100 | 100 to 1000 | < 100 | < 100 |
| CCC1(CC)Cc2sc(NC(=O)Cc3ccc(S(N)(=O)=O)cc3)c(C#N)c2CN1CC1CCCCC1 [Example 76, N-(3-cyano-5-(cyclohexylmethyl)-6,6-diethyl-4,5,6,7-tetrahydrothieno[3,2-c]pyridin-2-yl)-2-(4-sulfamoylphenyl)acetamide] | < 100 | < 100 | < 100 | < 100 |
| N#Cc1c(NC(=O)Cc2ccc(S(N)(=O)=O)cc2)sc2c1CCN(CC1CCCCC1)C2 [Example 92, N-(3-cyano-6-(cyclohexylmethyl)-4,5,6,7-tetrahydrothieno[2,3-c]pyridin-2-yl)-2-(4-sulfamoylphenyl) acetamide] | 100 to 1000 | 100 to 1000 | < 100 | < 100 |
| N#Cc1c(NC(=O)Cc2ccc(S(N)(=O)=O)s2)sc2c1CN(CC1CCCCC1)CC2 [Example 84, N-(3-cyano-5-(cyclohexylmethyl)-4,5,6,7-tetrahydrothieno[3,2-c]pyridin-2-yl)-2-(5-sulfamoylthiophen-2-yl)acetamide] | < 100 | < 100 | < 100 | < 100 |
| COc1cc(S(N)(=O)=O)ccc1CC(=O)Nc1sc2c(c1C#N)CN(Cc1cccc(F)c1)CC2 [Example 24, N-(3-cyano-5-(3-fluorobenzyl)-4,5,6,7-tetrahydrothieno[3,2-c]pyridin-2-yl)-2-(2-methoxy-4-sulfamoylphenyl)acetamide] | < 100 | 100 to 1000 | 100 to 1000 | 100 to 1000 |
| N#Cc1c(NC(=O)Cc2ccc3c(c2)CNC3)sc2c1CN(CC1CCCCC1)CC2 [Example 20, N-(3-cyano-5-(cyclohexylmethyl)-4,5,6,7-tetrahydrothieno[3,2-c]pyridin-2-yl)-2-(isoindolin-5-yl)acetamide] | > 1000 | > 1000 | > 1000 | 100 to 1000 |
| COc1cc(CC(=O)Nc2sc3c(c2C#N)C(C)(C)N(Cc2ccccc2)CC3)ccc1S(N)(=O)=O [Example 49, N-(5-benzyl-3-cyano-4,4-dimethyl-4,5,6,7-tetrahydrothieno[3,2-c]pyridin-2-yl)-2-(3-methoxy-4-sulfamoylphenyl)acetamide] | 100 to 1000 | > 1000 | > 1000 | 100 to 1000 |
| N#Cc1c(NC(=O)Cc2ccc(S(N)(=O)=O)cc2)sc2c1CN(CC1CCCCC1)CC2 [Example 6, N-(3-cyano-5-(cyclohexylmethyl)-4,5,6,7-tetrahydrothieno[3,2-c]pyridin-2-yl)-2-(4-sulfamoylphenyl)acetamide] | < 100 | 100 to 1000 | < 100 | < 100 |
| CCC1Cc2sc(NC(=O)Cc3ccc(S(N)(=O)=O)cc3)c(C#N)c2CN1Cc1cccc(F)c1 (stereo not drawn) [Example 87, N-(3-cyano-6-ethyl-5-(3-fluorobenzyl)-4,5,6,7-tetrahydrothieno[3,2-c]pyridin-2-yl)-2-(4-sulfamoylphenyl)acetamide] | < 100 | 100 to 1000 | < 100 | < 100 |
| N#Cc1c(NC(=O)Cc2ccc(S(N)(=O)=O)c(F)c2)sc2c1CN(CC1CCCCC1)CC2 [Example 9, N-(3-cyano-5-(cyclohexylmethyl)-4,5,6,7-tetrahydrothieno[3,2-c]pyridin-2-yl)-2-(3-fluoro-4-sulfamoylphenyl)acetamide] | < 100 | 100 to 1000 | < 100 | < 100 |
